Experimental findings from ChEMBL document CHEMBL4823265, “Benzophenones from Betula alnoides with Antiausterity Activities against the PANC-1 Human Pancreatic Cancer Cell Line” (J Nat Prod, 2021) are described below.

The source made the active and inactive calls. The calls are words filed in the database; no cut-off is given here.

Broadly, the inhibition is the relative decrease from the control value, in per cent.

The subject of data set [1] is PANC-1. Description: Anti-austerity activity against human PANC-1 cells assessed as cell killing incubated for 24 hrs in nutrient deprived medium by CCK8 assay. Format: functional. On the technique in general: Tetrazolium dyes change colour on reduction, which living cells bring about.
The subject of data set [2] is PANC-1. Description: Cytotoxicity against human PANC-1 cells assessed as reduction in cell viability incubated for 24 hrs in nutrient-rich DMEM medium by CCK8 assay. Format: cell-based. The note with it: panc-1, 24 h.
For data set [3], the system named is PANC-1. Nature of the data set: Cytotoxicity against human PANC-1 cells assessed as swollen cell morphology by measuring red fluorescence emission incubated for 24 hrs in nutrient deprived medium by ethidium bromide/acridine orange double staining based fluorescence microscopic analysis. Format: functional. The note with it: dose 5-10 µM.
The test system of data set [4] is PANC-1. Description: Cytotoxicity against human PANC-1 cells assessed as membrane blebs by measuring red fluorescence emission incubated for 24 hrs in nutrient deprived medium by ethidium bromide/acridine orange double staining based fluorescence microscopic analysis. The data set is classed as functional, cell-based. The note with it: dose 5-10 µM.
In data set [5] the test system is PANC-1. Description: Cytotoxicity against human PANC-1 cells assessed as ruptured cell membrane by measuring red fluorescence emission incubated for 24 hrs in nutrient deprived medium by ethidium bromide/acridine orange double staining based fluorescence microscopic analysis. Format: functional. The following applies: dose 5-10 µM.
In data set [6] the test system is PANC-1. Description: Inhibition of colony formation in human PANC-1 cells treated for 24 hrs followed by replacement with fresh DMEM medium and measured after 10 days by crystal violet staining based assay. The data set is classed as functional, cell-based. The note with it: dose 10-40 µM.
Data set [7] relates to PANC-1. Nature of the data set: Inhibition of colony formation in human PANC-1 cells at 10 to 40 uM treated for 24 hrs followed by replacement with fresh DMEM medium and measured after 10 days by crystal violet staining based assay relative to control. The note with it: dose 10-40 µM. The data set is classed as functional.
Data set [8] concerns PANC-1. Description: Cytotoxicity against human PANC-1 cells assessed as membrane blebbing at 10 uM incubated in nutrient deprived medium measured every 15 mins for 13 hrs by time-lapse live imaging based analysis. Format: functional, cell-based.
Data set [9] deals with PANC-1. Description: Cytotoxicity against human PANC-1 cells assessed as cell death at 10 uM incubated in nutrient deprived medium measured every 15 mins for 23 hrs by time-lapse live imaging based analysis. The data set is classed as functional.
The test system of data set [10] is PANC-1. Nature of the data set: Cytotoxicity against human PANC-1 cells assessed as cell shrinkage at 5 to 10 uM incubated in nutrient deprived medium measured every 15 mins for 8 hrs by time-lapse live imaging based analysis. The note with it: dose 5-10 µM. The data set is classed as functional.
Data set [11] deals with PANC-1. Description: Inhibition of colony formation in human PANC-1 cells at 40 uM treated for 24 hrs followed by replacement with fresh DMEM medium and measured after 10 days by crystal violet staining based assay relative to control. The data set is classed as functional.
Data set [12] concerns PANC-1. Nature of the data set: Cytotoxicity against human PANC-1 cells assessed as inhibition of cell mobility at 5 to 10 uM incubated in nutrient deprived medium measured every 15 mins for 4 hrs by time-lapse live imaging based analysis. The data set is classed as functional. The following applies: dose 5-10 µM.
The test system of data set [13] is PANC-1. Description: Inhibition of colony formation in human PANC-1 cells at 20 uM treated for 24 hrs followed by replacement with fresh DMEM medium and measured after 10 days by crystal violet staining based assay relative to control. Format: functional.

Regarding `CC(C)=CCC/C(C)=C/CC[C@]1(C)CCc2c(O)cc(O)c(C(=O)c3ccccc3)c2O1`, in the data set with PANC-1 [1], the PC50 was 12.3 µM. Moreover, the Activity result with PANC-1 [2] is reported as “Non-Toxic”.

As to `CC(C)=CCC/C(C)=C/CC[C@@](C)(O)CCc1c(O)cc(O)c(C(=O)c2ccccc2)c1O`, in the data set with PANC-1 [1], the PC50 stood at 5.9 µM. The Activity result in the data set on PANC-1 [3] was “Dose-Dependent Effect”; in the data set with PANC-1 [4] it was “Dose-Dependent Effect”; with PANC-1 [5] it was “Dose-Dependent Effect”; in the data set on PANC-1 [2], “Non-Toxic”. The inhibition entry in the data set on PANC-1 [6] was “Dose-Dependent Effect”. Further, in the data set with PANC-1 [7], the “inhibition (INH)” value is reported as greater than 60%.

As to `CC(C)=CCC/C(C)=C/CC[C@@]1(C)Oc2c(c(O)cc(O)c2C(=O)c2ccccc2)C[C@H]1O`, in the data set with PANC-1 [1], the PC50 was 6.7 µM. Further, the Activity result with PANC-1 [2] is on record as “Non-Toxic”.

On to `COc1cc2c(=O)c3ccccc3oc2cc1O`, for which, in the data set on PANC-1 [1], the PC50 is greater than 100 µM. Besides, the Activity entry in the data set with PANC-1 [2] was “Non-Toxic”.

Consider `O=C(c1ccccc1O)c1cc(O)ccc1O`, for which the PC50 with PANC-1 [1] worked out at 42.5 µM. In the data set with PANC-1 [2], the Activity result is given as “Non-Toxic”.

On to `COc1cccc2c(=O)c3c(O)cccc3oc12`, for which the PC50 with PANC-1 [1] is 61 µM. In addition, the Activity result in the data set with PANC-1 [2] is on record as “Non-Toxic”.

With `COc1cc(C[C@H]2C(=O)OC[C@@H]2Cc2ccc(OC)c(OC)c2)ccc1O` [ARCTIGENIN], the PC50 with PANC-1 [1] amounted to 0.7 µM.

With `CC(C)=CCC/C(C)=C/CC/C(C)=C/Cc1c(O)cc(O)c(C(=O)c2ccccc2)c1O`, the PC50 with PANC-1 [1] came out at 8.3 µM. Moreover, the Activity result with PANC-1 [2] was “Non-Toxic”.

Regarding `O=c1c2ccc(O)cc2oc2ccc(O)cc12`, in the data set on PANC-1 [1], the PC50 turned out to be 45.2 µM. The Activity entry with PANC-1 [2] is recorded as “Non-Toxic”.

In the case of `CC(C)(O)[C@@H]1CC[C@@]2(C)C[C@@H]1c1c(O)cc(O)c(C(=O)c3ccccc3)c1O2`, the result in the data set on PANC-1 [8], in the data set on PANC-1 [9], in the data set with PANC-1 [10] and in the data set on PANC-1 [12] was Active. For the same compound, in the data set on PANC-1 [1], the PC50 was 4.9 µM. For the same compound, the Activity entry in the data set on PANC-1 [3] is “Dose-Dependent Effect”; with PANC-1 [4], “Dose-Dependent Effect”; in the data set with PANC-1 [5] it was “Dose-Dependent Effect”; in the data set on PANC-1 [2] it was “Non-Toxic”. This compound yielded an inhibition at 40 µM in the data set on PANC-1 [11] of 64%. Also, in the data set on PANC-1 [6], the inhibition result was “Dose-Dependent Effect”. Also, the inhibition at 20 µM in the data set with PANC-1 [13] is 45%.
